Experimental data reported in patent US20230386662A1, “RAPID AND DIRECT IDENTIFICATION AND DETERMINATION OF URINE BACTERIAL SUSCEPTIBILITY TO ANTIBIOTICS” (B. G. NEGEV TECHNOLOGIES AND APPLICATIONS LTD., AT …, priority 2020, published 2023).

Tests used:
Assay type in all cases: cell-based
[1] = test system: Klebsiella pneumonia isolates; test: Susceptibility of Klebsiella pneumonia urine isolates to antibiotics by the classical method VITEK2; settings: Klebsiella pneumonia isolates from urine of UTI patients, 220 isolates studied
Text: (§1) The present inventors studied 1005 different bacterial isolates derived directly from urine samples of UTIs patients, as follows:
(§2) These isolates were identified at a species level as well as their known susceptibility to most common used antibiotics, using the classical methods MALDI-TOF and VITEK2, respectively.
FIGS. 7A-7B present the average second derivative IR spectra of Klebsiella pneumonia, in the 900-1800 cm^−1 region grouped as sensitive of resistant to: Amoxicillin (panel a), Ceftazidime (panel c), Ceftriaxone (panel e) and Cefuroxime (panel g). The ROC curves of the classification of these antibiotics are respectively presented in panels (b), (d), (f) and (h). […] The performances of the RF classifier for the classification between Klebsiella pneumonia isolates sensitive and resistant to the tested antibiotics are summarized in Table 4 similar to E. coli (Table 3).

E. coli isolates = test: Susceptibility of E. coli urine isolates to antibiotics by the classical method VITEK2; parameters: key to Bacterial susceptibility category label: sensitive (S); resistant (R); settings: for R (number of isolates resistant to the antibiotic) / S (number of isolates sensitive to the antibiotic): E. coli isolates from urine of UTI patients, 567 isolates studied
Text: as §1, §2
The samples where then processed for spectrometric measurements, by purifying the infecting bacteria directly from the urine as described herein above. A subset consisting of ten E. coli isolates was randomly selected, as detailed in table 1.

[2] = test system: Pseudomonas aeruginosa isolates; test: Susceptibility of Pseudomonas aeruginosa urine isolates to antibiotics by the classical method VITEK2; settings: Pseudomonas aeruginosa isolates from urine of UTI patients, 121 isolates studied
Text: as §1
These isolates were identified at a species level as well as their known susceptibility to most common used antibiotics, using the classical methods MALDI-TOF and VITEK2, respectively. […]

Compound | R (number of isolates resistant to the antibiotic) [1] | S (number of isolates sensitive to the antibiotic) [1] | R (number of isolates resistant to the antibiotic) (E. coli isolates) | S (number of isolates sensitive to the antibiotic) (E. coli isolates) | Bacterial susceptibility category label (E. coli isolates; E. coli isolate 306358) | Bacterial susceptibility category label (E. coli isolates; E. coli isolate 306365) | Bacterial susceptibility category label (E. coli isolates; E. coli isolate 306366) | Bacterial susceptibility category label (E. coli isolates; E. coli isolate 306382) | Bacterial susceptibility category label (E. coli isolates; E. coli isolate 307201) | Bacterial susceptibility category label (E. coli isolates; E. coli isolate 307212) | Bacterial susceptibility category label (E. coli isolates; E. coli isolate 307234) | Bacterial susceptibility category label (E. coli isolates; E. coli isolate 307368) | Bacterial susceptibility category label (E. coli isolates; E. coli isolate 307395) | Bacterial susceptibility category label (E. coli isolates; E. coli isolate 307402) | R (number of isolates resistant to the antibiotic) [2] | S (number of isolates sensitive to the antibiotic) [2]
CC1(C)S[C@@H]2[C@H](NC(=O)[C@H](N)c3ccc(O)cc3)C(=O)N2[C@H]1C(=O)O [Amoxicillin] | 61 | 159 | 170 | 397 | – | – | – | – | – | – | – | – | – | – | – | –
CC1(C)S[C@@H]2[C@H](NC(=O)[C@H](N)c3ccccc3)C(=O)N2[C@H]1C(=O)O [Ampicillin] | – | – | 384 | 181 | S | R | R | S | R | S | R | S | R | R | – | –
CC(C)(O/N=C(\C(=O)N[C@@H]1C(=O)N2C(C(=O)[O-])=C(C[n+]3ccccc3)CS[C@H]12)c1csc(N)n1)C(=O)O [Ceftazidime] | 91 | 129 | 159 | 408 | – | – | – | – | – | – | – | – | – | – | 19 | 78
CO/N=C(\C(=O)N[C@@H]1C(=O)N2C(C(=O)O)=C(CSc3nc(=O)c(=O)[nH]n3C)CS[C@H]12)c1csc(N)n1 [Ceftriaxone] | 87 | 133 | 160 | 407 | S | S | R | S | S | S | S | S | S | S | – | –
CO/N=C(\C(=O)N[C@@H]1C(=O)N2C(C(=O)OC(C)OC(C)=O)=C(COC(N)=O)CS[C@H]12)c1ccco1 (stereo partly drawn) [Cefuroxime-Axetil] | 95 | 112 | 190 | 351 | – | – | – | – | – | – | – | – | – | – | – | –
CO/N=C(\C(=O)N[C@@H]1C(=O)N2C(C(=O)O)=C(COC(N)=O)CS[C@H]12)c1ccco1 [Cefuroxime] | 99 | 121 | 196 | 371 | S | S | R | S | S | S | S | S | S | S | – | –
CC1=C(C(=O)O)N2C(=O)[C@@H](NC(=O)[C@H](N)c3ccccc3)[C@H]2SC1 [Cephalexin] | 90 | 121 | 167 | 372 | – | – | – | – | – | – | – | – | – | – | – | –
C[C@@H](O)[C@H]1C(=O)N2C(C(=O)O)=C(SCCN=CN)C[C@H]12 [Imipenem] | – | – | – | – | – | – | – | – | – | – | – | – | – | – | 18 | 72
C[C@H]1COc2c(N3CCN(C)CC3)c(F)cc3c(=O)c(C(=O)O)cn1c23 [Levofloxacin] | – | – | – | – | – | – | – | – | – | – | – | – | – | – | 33 | 63
C[C@@H](O)[C@H]1C(=O)N2C(C(=O)O)=C(S[C@@H]3CN[C@H](C(=O)N(C)C)C3)[C@H](C)[C@H]12 [Meropenem] | – | – | – | – | – | – | – | – | – | – | – | – | – | – | 20 | 77
O=C1CN(/N=C/c2ccc([N+](=O)[O-])o2)C(=O)N1 [Nitrofurantoin] | 150 | 62 | 47 | 502 | – | – | – | – | – | – | – | – | – | – | – | –
CCN1CCN(C(=O)N[C@@H](C(=O)N[C@@H]2C(=O)N3[C@@H]2SC(C)(C)[C@@H]3C(=O)O)c2ccccc2)C(=O)C1=O [Piperacillin] | – | – | – | – | – | – | – | – | – | – | – | – | – | – | 23 | 59
NC[C@H]1O[C@H](O[C@H]2[C@H](O)[C@@H](O[C@H]3O[C@H](CO)[C@@H](O)[C@H](N)[C@H]3O)[C@H](N)C[C@@H]2N)[C@H](N)C[C@@H]1O [Tobramycin] | – | – | – | – | – | – | – | – | – | – | – | – | – | – | 15 | 79
Amoxicillin ClavulA | – | – | – | – | S | – | – | S | S | S | S | S | S | – | – | –
Gentamicin | 41 | 179 | 68 | 498 | – | – | – | – | – | – | – | – | – | – | 17 | 80
Piperacill-Tazobactam | 41 | 179 | 58 | 506 | – | – | – | – | – | – | – | – | – | – | 10 | 76
Sulfamethoxa-Trimeth | 92 | 126 | 194 | 371 | S | R | S | S | R | R | R | S | R | S | – | –
